Data set [1] is described as follows: Bromate analysis of cooling water dosed with dilute solutions. Type of data set: physicochemical. As to conditions: cooling water (pH 8.3); total available halogen 1, 2, 3, and 4 ppm (as Cl2). On the procedure: As noted above, the pH of these solutions was high which favors bromate formation. However, NaOCl, which contains significant amounts of NaOH, is typically diluted with system water prior to the introduction of the bromide species in most industrial applications. The pH of this diluted system would be lower than the neat NaOCI / NaBr formulation described above theoretically minimizing bromate formation. The available chlorine in a NaOCI sample diluted (1:100) with distilled water was titrated by the DPD-FAS method. A solution of 45 percent sodium bromide was added to the dilute NaOCI at a molar ratio of 1 Cl2 : 1 Br^- forming NaOBr. This reaction proceeded for thirty minutes. Then, appropriate volumes of this dilute NaOBr solution were added to cooling water (pH 8.3) giving total available halogen levels of 1, 2, 3, and 4 ppm (as Cl2) as determined by the DPD-FAS method. Similarly, a dilution of stabilized sodium hypobromite (1:100) was made in distilled water. Dilute stabilized NaOBr was added to cooling water (pH 8.3) giving total available halogen levels of 1, 2, 3, and 4 ppm (as Cl2) as determined by the DPD-FAS method. Bromate analysis then proceeded in the manner described above. Bromate was not detected in any of the cooling water samples dosed with either stabilized or unstabilized dilute NaOBr at typical use concentrations.

A short description of data set [2]: Volatility: halogen vapors from concentrated solutions in a beaker. Type of data set: physicochemical. The following applies: concentrated solution in a beaker. How it is done: Concentrated solutions of either NaOCI, NaOBr, or stabilized NaOBr were added to a beaker. […] No odors were noticed from the stabilized NaOBr. This is an improvement over existing products by minimizing halogen odors in product storage areas.

Another data set deals with Pseudomonas aeruginosa. Put plainly: Antibacterial activity of stored hypohalite solutions in cooling water. Type of data set: cell-based. The following applies: volume initially required for one ppm free halogen. On the procedure: Freshly prepared solutions of stabilized and unstabilized sodium hypobromite were diluted then added to cooling water in order to achieve a one ppm free halogen residual (as chlorine). Sodium hypochlorite was stabilized in the same fashion as described for NaOBr in Example One with the exception that NaBr was directly replaced with distilled water. Stabilized and unstabilized sodium hypochlorite were diluted then added to cooling water at a final concentration of one ppm free halogen residual (as chlorine). The volumes of all solutions needed to achieve a one ppm free halogen residual (as chlorine) was recorded. Following 6 and 21 days of dark storage, identical dilutions of stabilized and unstabilized sodium hypohalite solutions were prepared and the volume originally required for a one ppm free halogen residual (as chlorine) was added to cooling water containing approximately 10^6 Pseudomonas aeruginosa cells / mL. Aliquots were extracted at 10 and 30 minutes into cooling water dilution blanks containing a halogen neutralizer (0.05 percent Na2S2O3) then enumerated on tryptone glucose extract agar. Stabilized NaOBr retained its antibacterial activity after storage while the unstabilized form lost its efficacy against Pseudomonas aeruginosa (see Table III below). The results were even more dramatic as the storage period increased. This effect was likely due to the disproportionation of the unstable hypobromite ion into the non-biocidal species bromide and bromate. […]

A short description of data set [3]: Storage stability: loss of available halogen. Type of data set: physicochemical. How it is done: Sodium hypochlorite solution was diluted in demand-free water. This diluted solution was titrated by the DPD-FAS method. The available chlorine level present in the original solution was determined to be 15 percent. 42.4 grams of the neat NaOCl solution were added to 20.5 grams of a 45 percent NaBr solution. This reaction forms unstabilized NaOBr. The stabilization solution was formulated with 9.6 grams of sulfamic acid, 14 grams of water, and 13.2 grams of 50 percent sodium hydroxide. The stabilization solution is then added with stirring to the NaOBr. The order of addition is critical in this process which differs from the Goodenough et al. reference. For instance, if the stabilizer was added to NaOCl prior to NaBr introduction, the bromide would not be oxidized to hypobromite. […] The stabilization procedure described here improved on the prior art as the decline of active ingredient was only 1 percent after 84 days (see Table I above). An unstabilized NaOBr solution prepared in an similar process by replacing sulfamic acid with distilled water lost 94 percent available halogen during the same period.

Data set [4] in a line: Bromate formation in stored solutions (ion chromatography). Type of data set: physicochemical. The following applies: STORED FOR EIGHT MONTHS in the dark at room temperature; pH 14. How it is done: Hypohalite ions are known to disproportionate into halate and halide under alkaline conditions. Halate ions are undesirable degradants being suspect carcinogens and are under consideration for governmental regulation. The reaction of NaBr with NaOCI can yield significant amounts of bromate in elevated pH environments. […] Stabilized and unstabilized sodium hypobromite solutions were prepared as described in Example One. These solutions were stored in the dark at room temperature during the course of the study. Eight month old samples of stabilized and unstabilized NaOBr, both maintained at pH 14, a condition suitable for bromate formation, were assayed for bromate. A Dionex 4000 series gradient ion chromatography system equipped with AG9-SC/AS9-SC columns and a conductivity detector was used to measure the bromate concentration in the samples. The chromatograph was operated according to a method currently under investigation by the EPA for the analysis of bromate in ozonated drinking water. Purified water from an Interlake Water Systems deionization system was used for the preparation of all reagents and standard solutions to prevent contamination.

On data set [5], the source says:
AOX is a generic class of compounds which includes all organic molecules containing halogen. Limits for AOX discharge from cooling water systems have already been established in some European countries. To simulate AOX formation during stabilized and unstabilized sodium hypobromite action in cooling water, a mixed bacterial culture typically found in cooling water was cultivated in L-broth overnight and the cells harvested by centrifugation. The cell pellet was washed with synthetic cooling water (90 ppm calcium, 50 ppm magnesium, 110 ppm "M" alkalinity, pH 8.0 -8.2) twice to remove the remaining organic medium. Cells were then resuspended into an equal volume of cooling water. A capped dark bottle served as the reactor. Synthetic cooling water was added to the bottle followed by the washed bacterial stock yielding approximately 10^7 cells/ml. Stabilized NaOBr or unstabilized NaOBr was dosed into this bacterial suspension at a final concentration of 1, 2, 3, or 4 ppm total halogen (as chlorine). Headspace in the bottle was minimized to avoid the evaporative loss of halogenated organics and the solution stirred for 24 hours to simulate a typical cooling system. Immediately before AOX analysis, the sample was acidified to pH 2.0 with concentrated nitric acid. A Mitsubishi TOX-10 Analyzer was used according to US EPA Method 9020 to measure the AOX concentration in the samples. […]

The mark [6] stands for this setting: 6 DAYS OF STORAGE, CONTACT TIME 10 MINUTES.
The mark [7] stands for this setting: 6 DAYS OF STORAGE, CONTACT TIME 30 MINUTES.
Where [8] appears, read: 21 DAYS OF STORAGE, CONTACT TIME 10 MINUTES.
The mark [9] stands for this setting: 21 DAYS OF STORAGE, CONTACT TIME 30 MINUTES.

The structures appear in SMILES notation.

Turning to `[Na+].[O-]Br` [Unstabilized Sodium Hypobromite, sodium hypobromite], in data set [1], the Bromate result was “not detected”. For the same compound, the “Halogen vapors / odors” value in data set [2] is reported as “Halogen vapors were detected”. The “% BACTERIA KILLED” value worked out at 99.8% in the data set with Pseudomonas aeruginosa (setting [6]), 99.7% with Pseudomonas aeruginosa (setting [7]), 0.4% in the data set with Pseudomonas aeruginosa (setting [8]) and 6.1% in the data set on Pseudomonas aeruginosa (setting [9]). In addition, the “% LOSS OF AVAILABLE HALOGEN” value came to 74% in data set [3] (After 14 days); 79% in data set [3] (After 21 days); 84% in data set [3] (After 34 days); 93% in data set [3] (After 84 days); 94% in data set [3] (After 84 days, listed as unstabilized NaOBr). The “PERCENT BROMATE” value in data set [4] was determined as 2.700%. For the same compound, the “linear-fit equation AOX (ppb) = factor X Dose (ppm)” value in data set [5] was found to be 53.9.

For `[Na+].[O-]Cl` [unstabilized NaOCl, sodium hypochlorite], in data set [2], the “Halogen vapors / odors” value is recorded as “Halogen vapors were detected”. The “% BACTERIA KILLED” value with Pseudomonas aeruginosa (setting [6]), in the data set with Pseudomonas aeruginosa (setting [7]), in the data set on Pseudomonas aeruginosa (setting [8]) and in the data set with Pseudomonas aeruginosa (setting [9]) was 100% each time.
